Tests used:
[1] = test system: Ishikawa; assay: cells; details: Homo sapiens
Description: Stimulation of alkaline phosphatase activity in Ishikawa human endometrial adenocarcinoma cells

[2] = target: T1, Estrogen receptor (Homo sapiens, UniProt Q92731+P03372)
[3] = target: T1, Estrogen receptor; assay: Displacement of [3H]17-beta-estradiol from Estrogen receptor of rabbit uterine tissue; type: protein assay, Oryctolagus cuniculus; details: target entry is the homologue from another species

Compound `Oc1ccc2c(c1)OC[C@H](c1ccccc1)[C@@H]2c1ccc(OCCN2CCCCC2)cc1` (racemic) has an EC50 [1] of 0.7 nM and an IC50 [2] of 3.1 nM.
Work on `Oc1ccc2c(c1)OC[C@H](c1ccccc1)[C@@H]2c1ccc(OCCN2CCCC2)cc1` (racemic) yielded an EC50 [1] of 0.9 nM and an IC50 [2] of 19 nM.
With `Oc1ccc2c(c1)OC[C@H](c1ccccc1)[C@@H]2c1ccc(SCCN2CCCCC2)cc1` (racemic) the EC50 [1] was 1.8 nM and the IC50 [2] was 9.7 nM.
`Cl.Oc1ccc2c(c1)OC[C@H](c1ccccc1)[C@@H]2c1ccc(SCCN2CCCC2)cc1` (racemic) was tested, and the EC50 [1] was 0.5 nM and the IC50 [2] was 6.5 nM.
In the case of `C#C[C@]1(O)CC[C@H]2C3CCc4cc(O)ccc4[C@H]3[C@@H](OC)C[C@@]21C` (single isomer, unassigned) [MOXESTROL], the IC50 [3] is reported as 2.9 nM and the EC50 [1] is reported as 0.08 nM.
For `CC/C(=C(\c1ccc(I)cc1)c1ccc(OCCN2CCCC2)cc1)c1ccccc1` [IDOXIFENE], the EC50 [1] was 7 nM and the IC50 [2] was 7.5 nM.
Work on `COc1ccc2c(c1)OC(C)(C)[C@@H](c1ccccc1)[C@@H]2c1ccc(OCCN2CCCC2)cc1` [LEVORMELOXIFENE] yielded an EC50 [1] of 13 nM and an IC50 [2] of 73 nM.
`O=C(c1ccc(OCCN2CCCCC2)cc1)c1c(-c2ccc(O)cc2)sc2cc(O)ccc12` [RALOXIFENE] was tested, and the EC50 [1] was 0.04 nM.

Source: ChEMBL document CHEMBL1135087, “Synthesis and biological evaluation of novel thio-substituted chromanes as high-affinity partial agonists for the estrogen receptor” (Bioorg Med Chem Lett, 2002)
